Test results published in PMC4633953, “FR171456 is a specific inhibitor of mammalian NSDHL and yeast Erg26p” (Nature Communications, 2015).

Columns and labels:
[1] = system: HCV replicon subgenomic genotype 1b; test: HCV replicon assay in Huh-7 cells (luciferase); details: Hepatitis C virus; Huh-7 cell-based assay, 48 h
Description: The inhibitor screening was performed in 1,536-well plate with 3,000 cells per well, using Huh-7 cells containing the HCV replicon subgenomic genotype 1b, maintained in DMEM, supplemented with (1 × ) L-glutamine (L-Glue), 1 × non-essential amino acids, 10% heat-inactivated fetal bovine serum (FBS), and 1 mg ml^–1 G418, and incubated with compounds for 48 h at 37 °C, 5% CO2. […] Following compound incubation, Resazurin solution (10 × : 1 μg μl^–1 Resazurin in DMSO) diluted to 1 × was then added to a volume of 0.5 μl to each well and incubated for further 3 h at 37 °C, 5% CO2 to monitor cell viability. Subsequently 15 μl, diluted 1:2 from stock of Steady- Glo (Promega) was added and the luminescence from the HCV replicon was monitored using the Envision (Envision US Lum, using 0.1 s per well measurement time).

S. cerevisiae = test: Yeast fermentation with FR171456 and metabolic profiling for substrate accumulation; type: cell-based
Description: In the fermentation experiment, a single yeast colony was grown in 10 ml YP with galactose (2%) & Raffinose (1%) for 5 h (OD 1.0) at 30 °C. An inoculum (70 μl) from the same culture was used to inoculate 400 ml YP-gal (2%)+Raffinose (1%). This culture was then grown overnight at 30 °C. The OD at this point was 0.7. This culture was used to seed 20-l fermenter maintained at 30 °C. When OD in the fermenter was 0.7, then 1466, nM (IC80) of FR171456 was added to the fermenter. The cell pellets (3.8 g) were harvested after 7 h. Erg26p substrate (1.95 mg) was obtained by lipid extraction with ethylacetate and methanol.
Lipid extracts from yeast cells were prepared as described as above. Ergosterol and 4α-methylzymosterol-4-carboxylic acid were analysed on an UltiMate 3000 RS LC (Thermo Fisher Scientific, Waltham, MA, USA) coupled to a 4000 QTRAP (AB Sciex, Foster City, CA, USA), which was equipped with a ESI-Turbo Spray ion source (AB Sciex). […]
Ion source parameters and compound-dependent instrument parameters were optimized by infusing pure standard solutions of ergosterol and 4α-methylzymosterol-4-carboxylic acid, respectively. […] All mass transitions were monitored for 65 msec per SRM scan with a unit/unit resolution for Q1/Q3. […]

[2] = system: ERG26 heterozygous strain (erg26Δ/ERG26); test: Haploinsufficiency profiling (HIP); type: cell-based, S. cerevisiae; details: FR171456 at IC30 (4 μM)
Description: The HIP assay was performed in 24-well plates (Greiner 662102), with 1.6 ml per well YPD. Experimental compounds were tested at n=2 within the same plate at or close to their IC30 concentration. Each plate contained two no drug controls, one positive control (Benomyl), 10 experimental compounds in duplicates and one contamination control that received no cells. A standard experiment was 4 plates per 40 experimental compounds processed robotically without human intervention. YPD per compound filled wells were inoculated with ∼250 yeast cells per strain (100 μl of a 1.5-OD600 per ml culture) from an overnight log phase preculture to start the experiment (Supplementary Fig. 2). The plates were pipetted with a standard 96 pipettor head by providing tip boxes preconfigured with a special tip pattern. Plates were incubated for 16 h in a robotic shaking incubator at 30 °C/550 r.p.m. allowing for ∼5 doublings. ∼250 yeast cells per strain (120 μl of a 1.2-OD600 per ml culture) were subsequently transferred into a preconfigured 24-well plate that was stored in a robotic plate reservoir at 4 °C until 30 min prior to its use where it was prewarmed to 30 °C. Once inoculated the new plate was incubated at 30 °C/550 r.p.m. to allow the next five yeast generations (generation 6–10) and the plate containing the first five doubling cultures was stored at 4 °C. […]

Q: How did the IC50 [1] turn out when C=C(CCC(C)C1CCC2C1(C)CC(O)C13CC14C(=O)CC(O)C(C)(C(=O)O)C4C(=O)CC23O)C(C)C [FR171456, (1R,2aR,3R,5aR,5bS,7aR,8S,9S,11aS,12aR)-1,5b,9-trihydroxy-2a,8-dimethyl-3-((R)-6-methyl-5-methyleneheptan-2-yl)-7,11-dioxohexadecahydrocyclopenta[a]cyclopropa[e]-phenanthrene-8-carboxylic acid] was run?
A: Its IC50 is 6.3 nM.

Q: And the “Erg26p precursor (4α-methylzymosterol-4-carboxylic acid) level” value (S. cerevisiae; FR171456 1466 nM for 7 h)?
A: The value was “accumulates”.

Q: What about the IC80 (S. cerevisiae; Saccharomyces cerevisiae, yeast in YP-gal (2%)+Raffinose (1%), fermenter 30 °C) of the same compound?
A: The IC80 was 1470 nM.

Q: And the “strain sensitivity in HIP profile” value [2]?
A: Its value is “most significant hypersensitivity”.
